Data as given in patent publication US20250163052A1, “cGAS INHIBITORS AND USES THEREOF” (Cornell University, priority 2022, published 2025).

Legend:
[1] = Protein binding in mouse brain homogenates; assay type: in vitro ADME
P301S mice [2] = test: Novel object recognition test in P301S mice fed TDI-6570 diet; assay type: in vivo, mouse; conditions: 150 mg/kg diet for three months
Source text: (§1) P301S transgenic mice (https://www.jax.org/strain/008169) were crossed with cGas knockout mice (https://www.jax.org/strain/026554) to generate littermate P301S cGas+/+ mice, P301S cGas+/− and littermate P301S cGas−/− mice, as well as non-transgenic littermates. Mice of both sexes were used behavioral, histological and biochemical analyses. Mice underwent behavioral testing at 7 to 8 months of age and had not been used for any other experiments. At 9 to 10 months of age, the same mice were used for pathology and RNA-seq studies. For TDI-6570 in vivo treatment, P301S and non-transgenic littermate mice at 6-7 months were used for diet experiments and were assayed for behavior and histology at 9-10 months. Mice were housed under specific pathogen-free conditions under a 12 h light-dark cycle and all mouse protocols were approved by the Institutional Animal Care and Use Committee, University of California, San Francisco.
For experiments involving TDI-6570 treatment, male P301S and Non-transgenic littermates fed with TDI-6570 or control diet were used.
Mice were habituated to opaque open field arenas (40×40 cm) for two 10-minute trials spaced on the two days leading up to object recognition. […] An experimenter blind to the groups manually scored the time mice spent exploring each object. Preference was calculated based on the total time an individual mouse spent exploring both objects. […]

P301S mice [3] = test: Immunofluorescent staining of hippocampal synapses (PSD-95, vGAT) in P301S mice; assay type: in vivo, mouse; conditions: hippocampal CA1, 150 mg/kg diet for three months
Source text: as §1
Hemibrains from transcardially perfused mice were placed in 4% paraformaldehyde for 48 h, followed by 30% sucrose PBS for 48 h at 4° C. Sections were cut coronally at 40 μm using a freezing microtome (Leica) and placed in cryoprotective medium at −20° C. until use. 8-10 free floating sections per mouse. […] Quantification was done using ImageJ software (NIH) using percentage area based on thresholding determined using negative and positive controls. […]

For Cn1c2c(c3ccc(Cl)c(F)c31)CN(C(=O)CO)CC2 [TDI-6570, reference compound], the “% Recovery” value [1] was 89.39%, the LogK [1] was 2.38 and the “% Remaining at 6 hr” value ([1]; 6 hr) was 94.51%. The “Defect in recognizing the novel object (novel object recognition test)” value (P301S mice [2]) was “rescued”, the “P301S-dependent excitatory synapse loss (PSD-95)” value (P301S mice [3]) was “rescued” and the “P301S-dependent inhibitory synapse loss (vGAT)” value (P301S mice [3]) was “rescued”.
